Results from patent US20220322673A1, “Novel Agrochemical Combinations” (UPL LIMITED, priority 2019, published 2022).
Read-outs that look alike come from different tables or passages of the source.

Key:
Type in all cases: in vivo
Okra Mites = assay: Trials on controlling Okra Mites post 2nd and 3rd application (Example 2); conditions: doses gm/ha: OSA 625 + Flonicamid 50 / Acetamipirid 50 / Lancer Gold 650, solo OSA 1250, Flonicamid 75, Acetamipirid 50, Lancer gold 650
Protocol: Trials were conducted to test the efficacy of the combination of Flonicamid and Orthosilicic acid on controlling Okra Mites at different dosages post 2nd and 3rd application.

Okra Aphids = assay: Trials of Flonicamid and Orthosilicic acid on controlling Okra Aphids (Example 1); conditions: doses gm/ha: OSA + Flonicamid 625 + 50, Flonicamid 75, OSA 1250
Protocol: Trials were conducted to test the efficacy of the combination of Flonicamid and Orthosilicic acid on controlling Okra Aphids at different dosages.

[1] = tested on: Okra Aphids (Aphis gossypii); conditions: for Percent control (%) of Okra Aphids, Nymphs + Adults, A01: A01 = 1 day after first spray; for Percent control (%) of Okra Aphids, Nymphs + Adults, B03: B03 = 3 days after 2nd spray; for Percent control (%) of Okra Aphids, Nymphs + Adults, B07: B07 (after 2nd spray); for Percent control (%) of Okra Aphids, Nymphs + Adults, B10: B10 (after 2nd spray); for Percent control (%) of Okra Aphids, Nymphs + Adults, C03: C03 = 3 days after third spray; for Percent control (%) of Okra Aphids, Nymphs + Adults, C10: C10 (after third spray)
Text: (§1) In this evaluation, feeding damage & insect population on Okra Leaves before and after sprays is averaged and analyzed for the test of significance. Application method: Three applications (application A, B and C) within an interval of 14 days.

[2] = tested on: Okra Jassids (Amrasca bigutulla bigutulla); conditions: for Percent control (%) of Okra Jassids, Nymphs + Adults, A01: A01 = 1 day after first spray; for Percent control (%) of Okra Jassids, Nymphs + Adults, A10: A10 (after 1st spray); for Percent control (%) of Okra Jassids, Nymphs + Adults, B03: B03 = 3 days after 2nd spray; for Percent control (%) of Okra Jassids, Nymphs + Adults, B07: B07 (after 2nd spray); for Percent control (%) of Okra Jassids, Nymphs + Adults, B10: B10 (after 2nd spray); for Percent control (%) of Okra Jassids, Nymphs + Adults, B14: B14 (after 2nd spray); for Percent control (%) of Okra Jassids, Nymphs + Adults, C03: C03 = 3 days after third spray; for Percent control (%) of Okra Jassids, Nymphs + Adults, C10: C10 (after third spray)
Text: as §1

[3] = tested on: Corn FAW (Spodoptera frugiperda); conditions: for Percent control (%) A01: A01 = 1 day after first spray; for Percent control (%) A14: A14 = 14 days after 1st spray; for Percent control (%) B03: B03 = 3 days after 2nd spray; for Percent control (%) B07: B07 (after 2nd spray); for Percent control (%) B10: B10 (after 2nd spray); for Percent control (%) B21: B21 (after 2nd spray)
Text: Application method: Two applications (application A and B) within an interval of 14 days. A01=1 day after first spray, A14=14 days after 1st spray, B03=3 days after 2nd spray.

[4] = doses gm a.i./ha: OSA 25, Flonicamid 100, Acephate+Imidacloprid 520, Flonicamid+Fipronil 100+50, Imidacloprid 24.5, Acetamiprid 15
[5] = reduced insecticide dose, gm a.i./ha: OSA 25, Flonicamid (Ulala) 75, Acephate+Imidacloprid 390, Flonicamid+Fipronil 75+37.5, Imidacloprid 18.3, Acetamiprid 11.2
[6] = 25% reduced dose rate, gm a.i./ha: OSA 25, Flonicamid 75, Acephate+Imidacloprid 390, Flonicamid+Fipronil 75+37.5, Imidacloprid 18.3, Acetamiprid 11.2
[7] = 25% reduced dose of insecticide, gm a.i./ha: OSA 25, CTPR 22.5, Acephate 730, Novaluron 56, Novaluron+Lambda cyhalothrin 67.5, Novaluron+Emamectin 93.5
[8] = doses gm a.i./ha: OSA 25, CTPR 30, Acephate 970, Novaluron 75, Novaluron+Lambda cyhalothrin 90, Novaluron+Emamectin 125

Substance: orthosilicic acid [OSA]
- Percent control B07 (Okra Mites; B07): 10%
- Percent control C-01 (Okra Mites; C-01): 19.3%
- Percent control C-10 (Okra Mites; C-10): 11.7%
- Percent control Mean (Okra Mites; Mean of B07, C-01, C-10): 13.66%
- Percent control B01 (Okra Aphids; B01): 29.6%
- Percent control C-01 (Okra Aphids; C-01): 23.3%
- Percent control C-10 (Okra Aphids; C-10): 26.7%
- Percent control Mean (Okra Aphids; Mean of B01, C-01, C-10): 26.53%
- Percent control (%) of Okra Aphids, Nymphs + Adults, A01 [1, 4]: 32.3%
- Percent control (%) of Okra Aphids, Nymphs + Adults, A01 [1, 5]: 30.2%
- Percent control (%) of Okra Aphids, Nymphs + Adults, A10 ([1]; A10 (after 1st spray), doses gm a.i./ha: OSA 25, Flonicamid 100, Acephate+Imidacloprid 520, Flonicamid+Fipronil 100+50, Imidacloprid 24.5, Acetamiprid 15): 48.5%
- Percent control (%) of Okra Aphids, Nymphs + Adults, A14 ([1]; A14 = 14 days after 1st spray, reduced insecticide dose, gm a.i./ha: OSA 25, Flonicamid (Ulala) 75, Acephate+Imidacloprid 390, Flonicamid+Fipronil 75+37.5, Imidacloprid 18.3, Acetamiprid 11.2): 47%
- Percent control (%) of Okra Aphids, Nymphs + Adults, B03 [1, 4]: 52%
- Percent control (%) of Okra Aphids, Nymphs + Adults, B03 [1, 5]: 55%
- Percent control (%) of Okra Aphids, Nymphs + Adults, B07 [1, 4]: 56%
- Percent control (%) of Okra Aphids, Nymphs + Adults, B07 [1, 5]: 57.7%
- Percent control (%) of Okra Aphids, Nymphs + Adults, B10 [1, 4]: 56.1%
- Percent control (%) of Okra Aphids, Nymphs + Adults, B10 [1, 5]: 55.7%
- Percent control (%) of Okra Aphids, Nymphs + Adults, C03 [1, 4]: 57%
- Percent control (%) of Okra Aphids, Nymphs + Adults, C03 [1, 5]: 59.4%
- Percent control (%) of Okra Aphids, Nymphs + Adults, C10 [1, 4]: 59.7%
- Percent control (%) of Okra Aphids, Nymphs + Adults, C10 [1, 5]: 60.3%
- Percent control (%) of Okra Jassids, Nymphs + Adults, A01 [2, 6]: 27.9%
- Percent control (%) of Okra Jassids, Nymphs + Adults, A01 [2, 4]: 25.3%
- Percent control (%) of Okra Jassids, Nymphs + Adults, A10 [2, 6]: 37%
- Percent control (%) of Okra Jassids, Nymphs + Adults, A10 [2, 4]: 35.8%
- Percent control (%) of Okra Jassids, Nymphs + Adults, B03 [2, 6]: 40.9%
- Percent control (%) of Okra Jassids, Nymphs + Adults, B03 [2, 4]: 42.7%
- Percent control (%) of Okra Jassids, Nymphs + Adults, B07 [2, 6]: 47.9%
- Percent control (%) of Okra Jassids, Nymphs + Adults, B07 [2, 4]: 46.5%
- Percent control (%) of Okra Jassids, Nymphs + Adults, B10 [2, 6]: 48.6%
- Percent control (%) of Okra Jassids, Nymphs + Adults, B10 [2, 4]: 45.5%
- Percent control (%) of Okra Jassids, Nymphs + Adults, B14 [2, 6]: 43%
- Percent control (%) of Okra Jassids, Nymphs + Adults, B14 [2, 4]: 44.7%
- Percent control (%) of Okra Jassids, Nymphs + Adults, C03 [2, 6]: 45.5%
- Percent control (%) of Okra Jassids, Nymphs + Adults, C03 [2, 4]: 46.9%
- Percent control (%) of Okra Jassids, Nymphs + Adults, C10 [2, 6]: 49.1%
- Percent control (%) of Okra Jassids, Nymphs + Adults, C10 [2, 4]: 48.6%
- Percent control (%) A01 [3, 7]: 29.3%
- Percent control (%) A01 [3, 8]: 32.4%
- Percent control (%) A14 [3, 7]: 44.8%
- Percent control (%) A14 [3, 8]: 47.4%
- Percent control (%) B03 [3, 7]: 51.9%
- Percent control (%) B03 [3, 8]: 53.7%
- Percent control (%) B07 [3, 7]: 61.4%
- Percent control (%) B07 [3, 8]: 58.6%
- Percent control (%) B10 [3, 7]: 57.9%
- Percent control (%) B10 [3, 8]: 60.6%
- Percent control (%) B21 [3, 7]: 56.5%
- Percent control (%) B21 [3, 8]: 59.0%
